Test results taken from publication PMC6272295, “In Vitro Neuroprotective Activities of Compounds from Angelica shikokiana Makino” (Molecules, 2015).
Where two headings read alike, the source gives them in different places.

How the values were obtained:
Aβ25-35 = biological target: T1, Aβ25-35 (Homo sapiens, UniProt P05067); assay: Thioflavin T assay of Aβ25-35 aggregation; type: biochemical; conditions: for effect on Th-T fluorescence (in words): 25-100 µM; for Decrease of ThT Fluorescence: summary Table 4; for decrease of Th-T fluorescence intensity: Aβ25-35 25 µM; for Decrease of ThT Fluorescence: key: +: Weak activity; ++: Strong activity
T1 construct: Aβ25-35 (25 µM) freshly prepared in PBS; purchased Sigma (St. Louis, MO, USA)
Protocol: Thioflavin T (ThT), abenzothiazole salt, is used to quantify misfolded protein aggregates and amyloid peptides. ThT is a non-fluorescent dye which, when it binds to amyloid rich aggregates, produces a fluorescent signal proportional to the quantity of amyloid aggregation. Aβ25-35 (25 µM) freshly prepared in PBS (50 mM, pH = 7.4) was incubated at 37 °C with or without different concentrations (100, 50, 25 µM) of isolated compounds at 37 °C and shaken at 300 rpm for 3 h. One hundred µL of each incubated sample was transferred to a 96-well plate, and five µM ThT was added. The ThT fluorescence was measured over 180 min at 10-min intervals at emission λ at 485 nm; and excitation λ at 442 nm using FlexStation 3 Microplate Reader (Molecular Devices, LLC, Sunnyvale, CA, USA), and data were managed by SoftMax Pro® 5.4.1 software. The samples were constantly shaken every 60 sec during the incubation. 1% DMSO and different concentrations of ECCG were taken as negative and positive controls, respectively. The area under the curve (AUC) was taken as indicative of fluorescence intensity. Fluorescence of samples and ThT without Aβ25-35 (sample blank) was detected and subtracted from the final AUC to prevent any interference.

[1] = biological target: T2, AChE from Electrophorus electricus (Electrophorus electricus, UniProt O42275); assay: biochemical; conditions: Ellman's method; read-out: IC50 in the AChEI assay
T2 construct: purchased Sigma (St. Louis, MO, USA)
T2 sequence (O42275 24-633): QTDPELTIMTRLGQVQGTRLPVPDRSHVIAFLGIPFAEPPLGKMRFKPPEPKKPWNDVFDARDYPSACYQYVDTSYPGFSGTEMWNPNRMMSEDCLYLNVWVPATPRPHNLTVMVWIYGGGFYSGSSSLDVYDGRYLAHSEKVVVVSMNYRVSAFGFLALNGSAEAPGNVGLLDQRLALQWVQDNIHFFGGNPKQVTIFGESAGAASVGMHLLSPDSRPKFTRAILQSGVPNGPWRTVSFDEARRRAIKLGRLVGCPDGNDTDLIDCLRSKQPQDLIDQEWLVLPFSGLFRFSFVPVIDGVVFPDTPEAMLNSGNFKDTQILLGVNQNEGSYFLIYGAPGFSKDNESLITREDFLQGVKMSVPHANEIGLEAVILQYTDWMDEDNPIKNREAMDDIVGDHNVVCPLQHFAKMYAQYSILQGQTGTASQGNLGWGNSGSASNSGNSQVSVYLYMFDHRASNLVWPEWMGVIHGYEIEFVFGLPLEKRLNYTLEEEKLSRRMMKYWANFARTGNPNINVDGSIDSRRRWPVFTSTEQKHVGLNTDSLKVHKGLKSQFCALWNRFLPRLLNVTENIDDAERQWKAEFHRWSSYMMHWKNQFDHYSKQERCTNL
Protocol: AChEI activity was measured using Ellman’s method. AChE hydrolyzes the substrate ACTI into acetate and thiocholine. In a neutral and alkaline medium; thiocholine reacts with DTNB to give yellow colored 2-nitro-5-thiobenzoate, which can be detected spectrophotometrically at 405 nm. Briefly, in a 96-well plate, 25 µL of 15 mM ACTI, 125 µL of 3 mM DTNB in buffer B (50 mM Tris HCl, pH = 8, 0.1 M NaCl, 0.02 M MgCl2·6H2O), 50 µL of buffer A (50 mM Tris-HCl, PH 8, 0.1% BSA) and 25 µL of tested sample (dissolved in 25% DMSO) were mixed, and the absorbance was measured using a microplate reader (Biotek, Winooski, VT, USA) at 405 nm every 16 s ten times. Then, 25 µL of AChE (0.25 U/mL in buffer A) was added and the absorbance was measured ten times every 16 s. A solution of 25% DMSO was used as a negative control. Absorbance was plotted against time and enzyme activity was calculated from the slope of the line so obtained and expressed as a percentage compared to an assay using a buffer without any inhibitor. Fractions were tested at 400 µg/mL. To avoid any increase in absorbance due to the color of the compounds or spontaneous hydrolysis of the substrate, the absorbance before addition of the enzyme was subtracted from the absorbance after adding the enzyme.
(§1) IC50 values of isolated compounds in AChEI and scavenging of hydroxyl radical assays were calculated using Probit Analysis (SPSS Version 16.0 for Windows, SPSS Inc., Chicago, IL, USA) for five different concentrations in three independent experiments. Cell viability was expressed as a percentage of MTT reduction, assuming that the viability of cells treated with 1% DMSO as a negative control was 100%. Figures were built in Microsoft Excel 2010. All values are the mean ± SD of three independent experiments. Data were analyzed for statistical significance using one-way ANOVA, followed by Dunnet’s test as a post-hoc test with GraphPad Prism 5.0 software for Windows (Inc., San Diego, CA, USA).

neuro-2A cells [2] = assay: Protection against Aβ25-35-induced neurotoxicity (MTT); type: cell-based, Mouse; conditions: for Protection against Aβ25-35: summary Table 4; for Protection against Aβ25-35: key: +: Weak activity; ++: Strong activity
Protocol: (§2) Neuro-2A cell line was maintained in Eagle’s Minimum Essential medium supplemented with 10% fetal bovine serum, 1% of 100× antibiotic—antimitotic agents (containing penicillin and streptomycin) in a humid atmosphere of 5% (v/v) CO2 and 95% (v/v) air at 37 °C. Neuro-2A cells were plated in 96-well cell culture plates at a density of 3 × 10^4 cells/well for H2O2 and intracellular ROS assays and 2.5 × 10^3 cells/well for the Aβ25-35-assay.
(§3) Cell viability was determined by MTT reduction assay. Briefly, after treatment with isolated compounds, the media was replaced by fresh one after washing the cells with 100 µL PBS and 20 µL of MTT (5 mg/mL) was added to each well. After 4 h incubation at 37 °C, the state of cells was checked under microscope to confirm either cytotoxicity in H2O2 and Aβ25-35 wells or protection in positive controls and isolated compounds ones. The supernatants were aspirated carefully, and 150 µL of DMSO was added to each well to dissolve the dark blue formazan crystals. The absorbance was measured using a microplate reader at 570 nm.
Similarly, the concentration of Aβ25-35 that decreased cell viability to about 50% was determined. […] So, the cells were incubated with different concentrations of the isolated compounds (6.25, 12.5, 25, 50 and 100 µM) and EGCG as a positive control for 3 h followed by Aβ25-35 treatment for 72 h.

[3] = Scavenging of hydroxyl radical, 2-deoxyribose degradation assay; conditions: for % Inhibition of deoxyribose degradation, Non Site-Specific: at 300 µM (maximum solubility in phosphate buffer)
Protocol: The inhibitory effect of bioactive compounds on deoxyribose degradation was determined by measuring the competition between deoxyribose and bioactive compounds for the hydroxyl radicals (^.OH) generated from the Fe^3+/ascorbate/EDTA/H2O2 system (referred to non-site-specific assay; the major activity measured is ^.OH scavenging) or an Fe^3+/ascorbate/H2O2 system (referred to as a site-specific assay; major activity measured is metal chelation). Both assays depend on the formation of a highly reactive hydroxyl radical, OH, by the interaction of iron ions with H2O2 through Fenton’s reaction. […] This assay was performed as previously described. Different concentrations of tested compounds were dissolved in 400 µL phosphate buffer (0.2 M, pH 7.4). Then, 50 µL of deoxyribose (60 mM), 50 µL of Na2EDTA (2 mM), 50 µL of FeCl3 (3.2 mM), 50 µL of H2O2 (60 mM) and 50 µL of ascorbic acid (2 mM) were added, and the total volume of the reaction mixture was adjusted to 1 mL with buffer. After water-bath incubation at 50 °C for 25 min, the reaction was terminated by 250 µL of trichloroacetic acid (10%, w/w). […] For site-specific hydroxyl-radical-scavenging activity, the reaction mixture was similar to the above method, except that EDTA was replaced by an equivalent volume of buffer.
as §1, with “Figures were built in Microsoft Excel 2010.” left out

neuro-2A cells [4] = assay: Protection against H2O2-induced neurotoxicity (MTT); type: cell-based, Mouse
Protocol: as §2, §3
H2O2 interacts with metals in the medium, producing highly cytotoxic hydroxyl radicals that induce neurotoxicity. So, active compounds are those that can scavenge free radicals and increase the cell viability. This assay was performed as previously described with slight modifications. Briefly, the concentration of H2O2 that decreased cell viability to about 50% was determined as follows: cells were cultured in a 96-well plate and after 24 h were further incubated with different concentrations of H2O2 (50, 100, 150, 200 µM) freshly prepared from 30% stock solution. After 24 h, cell viability was determined using the MTT reduction method. H2O2 at a concentration of 150 µM had the desired cytotoxicity and was used for the next step.

[5] = system: intracellular ROS in Neuro-2A cells; assay: Scavenging of intracellular reactive oxygen species (Bes-H2O2-AC, DFF fluorescence); type: cell-based, Mouse; conditions: summary Table 4; note: key: +: Weak activity; ++: Strong activity
Protocol: as §2
This assay was performed as previously described with some modifications. Briefly, Neuro-2A cells were seeded in 96-well Clear Fluorescence Black Plate (number 655090, Greiner Bio-one, Tokyo, Japan). Cells were treated with three different concentrations (25, 50, 100 µM) of the samples. After 2 h incubation, cells were subjected to oxidative stress using 600 µM of H2O2 for 30 min. The nucleus was stained by Hoechst 33342 (Dojindo, Kumamoto, Japan), and the amount of difluorofluorescein (DFF) released from the reaction of H2O2 and BES-H2O2-Ac was taken as an indication of the amount of intracellular H2O2 and ROS. Images of each well were acquired using an IN Cell Analyzer 1000 (GE Healthcare, Buckinghamshire, UK) using 360-nm (Hoechst 33342) and 480-nm (BES-H2O2-Ac) excitation filters and monitored through 460-nm and 535-nm emission filters, respectively. Developer software was used to analyze the images of Hoechst 33342 and BES-H2O2-Ac staining, and the resulting data were then applied to Spotfire Decision Site Client 8.2 software for visualizing the results.

C/C=C(/C)C(=O)O[C@@H]1[C@H](OC(C)=O)c2c(ccc3ccc(=O)oc23)OC1(C)C [Isopteryxin (4), isopteryxin]
effect on Th-T fluorescence (in words) (Aβ25-35): weak activity
Decrease of ThT Fluorescence (Aβ25-35): +
IC50 [1]: 475.9 ± 1.5 µM
neuroprotection against Aβ25-35 (in words) (neuro-2A cells [2]; at the highest concentration (100 µM)): significant neuroprotection (p < 0.05)
Protection against Aβ25-35 (neuro-2A cells [2]): +
% Inhibition of deoxyribose degradation, Non Site-Specific [3]: 10 ± 2.1%

CC(=O)O[C@@H]1c2c(ccc3ccc(=O)oc23)OC(C)(C)[C@@H]1OC(=O)[C@@]1(C)O[C@H]1C [Isoepoxypteryxin (3), isoepoxypteryxin]
effect on Th-T fluorescence (in words) (Aβ25-35): decreased Th-T fluorescence in a dose-dependent manner
Decrease of ThT Fluorescence (Aβ25-35): ++
IC50 [1]: 327 ± 3.4 µM
Protection against Aβ25-35 (neuro-2A cells [2]): ++
% Inhibition of deoxyribose degradation, Non Site-Specific [3]: 6 ± 1.4%

kaempferol-3-O-rutinoside [Kaempferol-3-O-rutinoside (14)]
neuroprotection against H2O2-induced neurotoxicity (in words) (neuro-2A cells [4]; 6.25-100 µM, H2O2 150 µM): significant (p < 0.05) increase in cell viability at 100 µM
Protection against H2O2 (neuro-2A cells [4]; summary Table 4): +
decrease of Th-T fluorescence intensity (Aβ25-35; 50 µM): 12% ±3.7%
decrease of Th-T fluorescence intensity (Aβ25-35; 100 µM): 33% ± 2.5%
effect on Th-T fluorescence (in words) (Aβ25-35): decreased Th-T fluorescence in a dose-dependent manner
Decrease of ThT Fluorescence (Aβ25-35): ++
Protection against Aβ25-35 (neuro-2A cells [2]): ++
Intracellular ROS Scavenging [5]: +
IC50 ([3]; Fe3+/ascorbate/EDTA/H2O2 system, read-out: IC50 hydroxyl radical scavenging, Non Site-Specific): 1.03 ± 0.0257 mM
IC50 ([3]; Fe3+/ascorbate/H2O2 system without EDTA, read-out: IC50 hydroxyl radical scavenging, Site-Specific): 1.54 ± 0.0208 mM
IC50 ([3]; summary Table 4 (values of the non site-specific assay), read-out: Hydroxyl Radical Scavenging/IC50): 1.03 ± 0.0257 mM
